{"source": "patent EP3685668B1", "about": "“COMPOSITION COMPRISING ACIBENZOLAR-S-METHYL AS EFFECTIVE INGREDIENT FOR CONTROLLING BURSAPHELENCHUS XYLOPHILUS DISEASE AND METHOD FOR CONTROLLING BURSAPHELENCHUS XYLOPHILUS USING SAME” (Industry Foundation of Chonnam National University, priority 2017, dated 2019)", "key": {"[1]": {"system": "Bursaphelenchus xylophilus", "experiment": "Control efficacy against pine wilt disease by trunk injection, foliar spraying or soil drenching, greenhouse, red pine trees", "format": "in vivo", "settings": "red pine tree, observed for 80 days", "procedure": "The control efficacy of acibenzolar-S-methyl, which shown to have the highest activity in Example 1, was determined by three different treatment methods, i.e., trunk injection, foliar spraying, and soil drenching. For in vivo pathogenesis test, 2-year old young red pine trees (diameter of 5.5 mm or so, and height of about 35 mm) were used like Example 2.\nFor the trunk injection, a borehole was created at an angle of 45° by using an electric drill with thickness of 1.5 mm on a pine stem part that is 5 to 10 cm above the soil surface, a tip (200 µℓ) was inserted to the hole, and the working solution of chemicals was injected in an amount of 100 µℓ per pine tree after dissolving acibenzolar-S-methyl at concentration of 0.2 or 10 mg/mℓ in an aqueous solution containing 10% acetone and 10% methanol. After the treatment, the end part of the tip was sealed with parafilm, and a small hole was created thereon as an airflow hole. For the foliar spraying, a pre-treatment with Tween 20 (250 µg/mℓ) was carried out at 5 mℓ per pine tree to help the adsorption of the chemical on pine leaves, followed by drying for 2 hours. After drying, acibenzolar-S-methyl was dissolved at concentration of 1.6 mg/mℓ in an aqueous solution containing 10% acetone and Tween 20 (250 µg/mℓ) and the dissolved solution was filled in microsprayer and was applied 5 mℓ per pine tree by foliar spraying. For the soil drenching, acibenzolar-S-methyl was dissolved at concentration level of 0.2 mg/mℓ in an aqueous solution containing 10% acetone and Tween 20 (250 µg/mℓ), and this solution was used for soil drenching in a pot with planted pine tree, 40 mℓ per pine tree. […] [Table 3] The control efficacy of acibenzolar-S-methyl against pine wilt disease by various treatment methods"}, "PR_1b family": {"system": "PR_1b family", "experiment": "qRT-PCR expression of induced resistance gene in pine tree callus", "format": "cell-based", "settings": "concentration series"}, "PR_3 family class 1": {"system": "PR_3 family class 1", "experiment": "qRT-PCR expression of induced resistance gene in pine tree callus", "format": "cell-based", "settings": "concentration series, 2 µg/mℓ"}, "Heat shock 70": {"system": "Heat shock 70", "experiment": "qRT-PCR expression of induced resistance gene in pine tree callus", "format": "cell-based", "settings": "concentration series, 2 µg/mℓ"}, "PR_2 family": {"system": "PR_2 family", "experiment": "qRT-PCR expression of induced resistance gene in pine tree callus", "format": "cell-based", "settings": "concentration series, 2 µg/mℓ"}, "[2]": {"system": "Bursaphelenchus xylophilus", "experiment": "In vitro nematicidal activity, 96-well microplate", "settings": "after 3 days", "procedure": "To test the nematicidal activity of acibenzolar-S-methyl, a suspension of Bursaphelenchus xylophilus was diluted in a 96-well microplate to have 50 worms/99 µℓ in each well and used for the treatment. […] Each treatment was repeated 3 times, and \"A Pharm\" (emamectin benzoate, 2.15%), which is a chemical pesticide, was used as a control group. After the treatment, the 96-well plate was kept in a plastic box having water-soaked wipes spread on the bottom to maintain 100% humidity, and, after covering the box with black cloth, the box was stored in a dark state with blockage of light. The observation was made after 3 days. […] [Table 2] Nematicidal activity of acibenzolar-S-methyl against Bursaphelenchus xylophilus"}, "Antipeptide": {"system": "Antipeptide", "experiment": "qRT-PCR expression of induced resistance gene in pine tree callus", "format": "cell-based", "settings": "concentration series"}, "Xyloglucan": {"system": "Xyloglucan", "experiment": "qRT-PCR expression of induced resistance gene in pine tree callus", "format": "cell-based", "settings": "concentration series"}, "[3]": {"settings": "Foliar spraying, 1,600 µg/mℓ, 5 mℓ per tree"}, "[4]": {"settings": "Soil drenching, 200 µg/mℓ, 40 mℓ per tree"}}, "data": [{"compound": "CSC(=O)c1cccc2nnsc12", "note": "[ASM, acibenzolar-S-methyl]", "values": [{"measurement": "Control value (%)", "setting": "[1]; [3]", "result": 61, "unit": "%"}, {"measurement": "Disease occurrence rate (%)", "setting": "[1]; [3]", "result": 28, "unit": "%"}, {"measurement": "Control value (%)", "setting": "[1]; [4]", "result": 97, "unit": "%"}, {"measurement": "Disease occurrence rate (%)", "setting": "[1]; [4]", "result": 2, "unit": "%"}, {"measurement": "Control value (%)", "setting": "[1]; Trunk injection, 200 µg/mℓ", "result": 77, "unit": "%"}, {"measurement": "Disease occurrence rate (%)", "setting": "[1]; Trunk injection, 200 µg/mℓ", "result": 16, "unit": "%"}, {"measurement": "Control value (%)", "setting": "[1]; Trunk injection, 10,000 µg/mℓ", "result": 27, "unit": "%"}, {"measurement": "Disease occurrence rate (%)", "setting": "[1]; Trunk injection, 10,000 µg/mℓ", "result": 52, "unit": "%"}, {"measurement": "Gene expression level, PR_1b family", "setting": "PR_1b family; 2 µg/mℓ", "result": 1.064}, {"measurement": "Gene expression level, PR_1b family", "setting": "PR_1b family; 20 µg/mℓ", "result": 1.248}, {"measurement": "Gene expression level, PR_3 family class 1", "setting": "PR_3 family class 1", "result": 3.945}, {"measurement": "Gene expression level, Heat shock 70", "setting": "Heat shock 70", "result": 22.47}, {"measurement": "Gene expression level, PR_2 family", "setting": "PR_2 family", "result": 1.828}, {"measurement": "Nematicidal rate (%)", "setting": "[2]; 33.3 µg/mℓ", "result": 1.72, "unit": "%"}, {"measurement": "Nematicidal rate (%)", "setting": "[2]; 100 µg/mℓ", "result": 1.94, "unit": "%"}, {"measurement": "Nematicidal rate (%)", "setting": "[2]; 300 µg/mℓ", "result": 2.24, "unit": "%"}, {"measurement": "nematicidal activity", "setting": "[2]; second stage larvae, 300, 100 or 33.3 µg/mℓ", "result": "no nematicidal activity"}, {"measurement": "Gene expression level, Antipeptide", "setting": "Antipeptide; 2 µg/mℓ", "result": 5.816}, {"measurement": "Gene expression level, Antipeptide", "setting": "Antipeptide; 20 µg/mℓ", "result": 7.111}, {"measurement": "Gene expression level, Xyloglucan", "setting": "Xyloglucan; 2 µg/mℓ", "result": 7.013}, {"measurement": "Gene expression level, Xyloglucan", "setting": "Xyloglucan; 20 µg/mℓ", "result": 5.389}]}]}
